The text below walks through data of patent US8772293B2, “Chemical compounds” (Pfizer Limited, priority 2010, dated 2014).

Structures can show the parent of a compound that is named as a salt.

T1 sequence (Q15858 whole entry): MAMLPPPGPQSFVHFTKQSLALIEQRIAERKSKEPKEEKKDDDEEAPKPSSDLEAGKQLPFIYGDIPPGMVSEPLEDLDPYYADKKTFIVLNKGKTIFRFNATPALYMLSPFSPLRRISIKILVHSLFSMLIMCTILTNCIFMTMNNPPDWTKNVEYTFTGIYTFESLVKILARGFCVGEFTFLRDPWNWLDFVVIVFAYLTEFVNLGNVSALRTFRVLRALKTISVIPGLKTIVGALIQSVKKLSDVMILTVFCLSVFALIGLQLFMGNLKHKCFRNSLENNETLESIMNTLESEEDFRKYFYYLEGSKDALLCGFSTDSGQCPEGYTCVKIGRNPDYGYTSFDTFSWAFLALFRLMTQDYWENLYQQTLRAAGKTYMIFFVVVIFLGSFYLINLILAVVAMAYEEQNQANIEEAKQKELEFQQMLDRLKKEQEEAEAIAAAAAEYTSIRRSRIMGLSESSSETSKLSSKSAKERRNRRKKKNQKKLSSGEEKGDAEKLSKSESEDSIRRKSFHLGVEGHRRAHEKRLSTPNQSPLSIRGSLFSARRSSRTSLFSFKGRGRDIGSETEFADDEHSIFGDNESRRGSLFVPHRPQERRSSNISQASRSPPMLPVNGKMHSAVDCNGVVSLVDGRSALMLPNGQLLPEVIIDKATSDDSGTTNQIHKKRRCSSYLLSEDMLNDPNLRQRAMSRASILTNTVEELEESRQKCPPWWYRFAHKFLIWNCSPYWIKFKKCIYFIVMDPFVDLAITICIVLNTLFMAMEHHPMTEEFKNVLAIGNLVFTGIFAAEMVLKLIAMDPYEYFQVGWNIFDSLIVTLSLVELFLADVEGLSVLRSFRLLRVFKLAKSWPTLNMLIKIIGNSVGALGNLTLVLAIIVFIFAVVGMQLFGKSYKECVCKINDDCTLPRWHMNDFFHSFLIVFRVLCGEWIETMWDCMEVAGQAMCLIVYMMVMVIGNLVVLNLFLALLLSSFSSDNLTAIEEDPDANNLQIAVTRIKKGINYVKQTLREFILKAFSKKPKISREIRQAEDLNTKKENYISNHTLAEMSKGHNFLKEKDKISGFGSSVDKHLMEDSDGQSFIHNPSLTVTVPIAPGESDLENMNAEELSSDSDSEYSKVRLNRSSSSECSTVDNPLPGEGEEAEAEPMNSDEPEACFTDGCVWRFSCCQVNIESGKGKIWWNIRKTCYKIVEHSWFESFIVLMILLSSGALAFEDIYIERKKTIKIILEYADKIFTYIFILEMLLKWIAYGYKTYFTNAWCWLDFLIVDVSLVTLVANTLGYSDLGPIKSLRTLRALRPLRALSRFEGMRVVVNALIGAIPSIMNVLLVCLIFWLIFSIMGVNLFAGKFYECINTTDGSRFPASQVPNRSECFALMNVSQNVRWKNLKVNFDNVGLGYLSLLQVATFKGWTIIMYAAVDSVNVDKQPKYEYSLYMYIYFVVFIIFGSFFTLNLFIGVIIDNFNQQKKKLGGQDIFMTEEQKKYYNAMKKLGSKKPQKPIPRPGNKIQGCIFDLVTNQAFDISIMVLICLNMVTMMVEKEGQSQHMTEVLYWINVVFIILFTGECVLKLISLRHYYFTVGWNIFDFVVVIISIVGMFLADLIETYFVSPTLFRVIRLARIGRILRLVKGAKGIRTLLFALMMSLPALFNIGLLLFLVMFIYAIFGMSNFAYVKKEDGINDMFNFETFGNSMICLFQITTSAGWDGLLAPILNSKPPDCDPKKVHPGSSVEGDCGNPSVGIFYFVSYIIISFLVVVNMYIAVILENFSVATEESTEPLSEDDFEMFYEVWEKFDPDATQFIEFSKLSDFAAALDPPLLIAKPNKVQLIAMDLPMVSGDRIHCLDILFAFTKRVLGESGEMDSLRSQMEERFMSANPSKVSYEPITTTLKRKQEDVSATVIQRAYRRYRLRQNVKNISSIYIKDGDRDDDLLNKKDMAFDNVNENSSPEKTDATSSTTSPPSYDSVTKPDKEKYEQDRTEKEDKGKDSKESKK

This assay concerns the target T1, Nav1.7 (or SCN9A) channel (Homo sapiens, UniProt Q15858).
T1 construct: expressed in transfected cells
Nature of the assay: Nav1.7 (hSCN9A) PatchXpress electrophysiology in HEK cells. Type of assay: cell-based. The conditions noted are these: PatchXpress platform; HEK cells stably expressing hSCN9A; held at V1/2 of inactivation; calculated from single point % inhibition; read-out: Nav1.7 EIC50 (estimated IC-50). The protocol: The ability of the compounds of formula (I) to block the Nav1.7 (or SCN9A) channel were measured using the assay described below.
Human Embryonic Kidney (HEK) cells were transfected with an hSCN9A construct using lipofectamine reagent (Invitrogen), using standard techniques. Cells stably expressing the hSCN9A constructs were identified by their resistance to G-418 (400 μg/ml). Clones were screened for expression using the whole-cell voltage-clamp technique.
HEK cells stably transfected with hSCN9A were maintained in DMEM medium supplemented with 10% heat-inactivated fetal bovine serum and 400 µg/ml G-418 in an incubator at 37° C. with a humidified atmosphere of 10% CO2. For HTS, cells were harvested from flasks by trypsinization and replated in an appropriate multi-well plate (typically 96 or 384 wells/plate) such that confluence would be achieved within 24 hours of plating. For electrophysiological studies, cells were removed from the culture flask by brief trypsinization and re-plated at low density onto glass cover slips. Cells were typically used for electrophysiological experiments within 24 to 72 hours after plating.
Cover slips containing HEK cells expressing hSCN9A were placed in a bath on the stage of an inverted microscope and perfused (approximately 1 ml/minutes) with extracellular solution of the following composition: 138 mM NaCl, 2 mM CaCl2, 5.4 mM KCl, 1 mM MgCl2, 10 mM glucose, and 10 mM HEPES, pH 7.4, with NaOH. […] The osmolarity of the extracellular and intracellular solutions was 300 mOsm/kg and 295 mOsm/kg, respectively. All recordings were made at room temperature (22-24° C.) using AXOPATCH 200B amplifiers and PCLAMP software (Axon Instruments, Burlingame, Calif.).
hSCN9A currents in HEK cells were measured using the whole-cell configuration of the patch-clamp technique (Hamill et al., 1981). Uncompensated series resistance was typically 2 to 5 mega ohms and >85% series resistance compensation was routinely achieved. As a result, voltage errors were negligible and no correction was applied. Current records were acquired at 20 to 50 KHz and filtered at 5 to 10 KHz.
HEK cells stably transfected with hSCN9A were viewed under Hoffman contrast optics and placed in front of an array of flow pipes emitting either control or compound-containing extracellular solutions. All compounds were dissolved in dimethyl sulfoxide to make 10 mM stock solutions, which were then diluted into extracellular solution to attain the final concentrations desired. […] The voltage-dependence of inactivation was determined by applying a series of depolarizing prepulses (8 sec long in 10 mV increments) from a negative holding potential. The voltage was then immediately stepped to 0 mV to assess the magnitude of the sodium current. Currents elicited at 0 mV were plotted as a function of prepulse potential to allow estimation of the voltage at which 50% of the channels were inactivated (midpoint of inactivation or V1/2). Compounds were tested for their ability to inhibit hSCN9A sodium channels by activating the channel with a 20 msec voltage step to 0 mV following an 8 second conditioning prepulse to the empirically determined V1/2. Compound effect (% inhibition) was determined by difference in current amplitude before and after application of test compounds. For ease of comparison, “estimated IC-50” (EIC50) values were calculated from single point electrophysiology data by the following equation, (tested concentration, uM)×(100-% inhibition/% inhibition). Inhibition values <20% and >80% were excluded from the calculation.
Electrophysiological assays were conducted with PatchXpress 7000 hardware and associated software (Molecular Devices Corp). All assay buffers and solutions were identical to those used in conventional whole-cell voltage clamp experiments described above. hSCN9A cells were grown as above to 50%-80% confluency and harvested by trypsinization. […]
Turning to `N#Cc1cc(S(=O)(=O)Nc2ncns2)ccc1Oc1ccc(-c2cccc(C(F)(F)F)c2)cc1-c1ccnnc1` [Example 1, 3-Cyano-4-{[3-pyridazin-4-yl-3′-(trifluoromethyl)biphenyl-4-yl]oxy}-N-1,2,4-thiadiazol-5-ylbenzenesulfonamide], the IC50 is 1.8 nM.

For the compound `O=S(=O)(Nc1ncccn1)c1cc(Cl)c(Oc2ccc(-c3ccc(C(F)(F)F)cc3)cc2-c2ccnnc2)cc1F` [Example 2, 5-Chloro-2-fluoro-4-{[3-pyridazin-4-yl-4′-(trifluoromethyl)biphenyl-4-yl]oxy}-N-pyrimidin-2-ylbenzenesulfonamide], the IC50 is 8.1 nM.

Consider `O=S(=O)(Nc1cccnn1)c1ccc(Oc2ccc(-c3ccc(C(F)(F)F)cc3)cc2-c2ccnnc2)c(Cl)c1` [Example 3, 3-Chloro-N-pyridazin-3-yl-4-{[3-pyridazin-4-yl-4′-(trifluoromethyl)biphenyl-4-yl]oxy}benzenesulfonamide], for which the IC50 was 31 nM.

With `O=S(=O)(Nc1nncs1)c1cc(Cl)c(Oc2ccc(-c3ccccc3C(F)(F)F)cc2-c2ccnnc2)cc1F` [Example 4, 5-Chloro-2-fluoro-4-{[3-pyridazin-4-yl-2′-(trifluoromethyl)biphenyl-4-yl]oxy}-N-1,3,4-thiadiazol-2-ylbenzenesulfonamide], the IC50 is 2.9 nM.

With `O=S(=O)(Nc1nncs1)c1cc(Cl)c(Oc2ccc(-c3cccc(C(F)(F)F)c3)cc2-c2ccnnc2)cc1F` [Example 5], the IC50 was 1.3 nM.

`O=S(=O)(Nc1nncs1)c1cc(Cl)c(Oc2ccc(-c3ccc(C(F)(F)F)cc3)cc2-c2ccnnc2)cc1F` [Example 6, 5-Chloro-2-fluoro-4-{[3-pyridazin-4-yl-4′-(trifluoromethyl)biphenyl-4-yl]oxy}-N-1,3,4-thiadiazol-2-ylbenzenesulfonamide]: the IC50 is 2.9 nM.

On to `N#Cc1cc(S(=O)(=O)Nc2ncns2)ccc1Oc1ccc(-c2ccc(C(F)(F)F)cc2)cc1-c1ccnnc1` [Example 7, 3-Cyano-4-{[3-pyridazin-4-yl-4′-(trifluoromethyl)biphenyl-4-yl]oxy}-N-1,2,4-thiadiazol-5-ylbenzenesulfonamide], for which the IC50 is 1.2 nM.

Turning to `Cn1nccc1-c1cc(-c2ccccc2)ccc1Oc1ccc(S(=O)(=O)Nc2nccs2)cc1F` [Example 8, 3-Fluoro-4-{[3-(1-methyl-1H-pyrazol-5-yl)biphenyl-4-yl]oxy}-N-1,3-thiazol-2-ylbenzenesulfonamide], the IC50 is 32 nM.

As to `O=S(=O)(Nc1nncs1)c1ccc(Oc2ccc(-c3ccccc3)cc2-c2ccnnc2)c(Cl)c1` [Example 9, 3-Chloro-4-[(3-pyridazin-4-ylbiphenyl-4-yl)oxy]-N-1,3,4-thiadiazol-2-ylbenzenesulfonamide], the IC50 is 11.6 nM.

Consider `N#Cc1cc(S(=O)(=O)Nc2nncs2)ccc1Oc1ccc(-c2ccccc2)cc1-c1ccnnc1` [Example 10, 3-Cyano-4-[(3-Pyridazin-4-ylbiphenyl-4-yl)oxy]-N-1,3,4-thiadiazol-2-ylbenzenesulfonamide], for which the IC50 was 53 nM.

With `O=S(=O)(Nc1nncs1)c1cc(Cl)c(Oc2ccc(-c3ccccc3)cc2-c2ccnnc2)cc1F` [Example 11, 5-Chloro-2-fluoro-4-[(3-pyridazin-4-ylbiphenyl-4-yl)oxy]-N-1,3,4-thiadiazol-2-ylbenzenesulfonamide], the IC50 is 7.7 nM.

Take `N#Cc1cc(S(=O)(=O)Nc2ncns2)ccc1Oc1ccc(-c2ccccc2)cc1-c1ccnnc1` [Example 12, 3-Cyano-4-[(3-pyridazin-4-ylbiphenyl-4-yl)oxy]-N-1,2,4-thiadiazol-5-ylbenzenesulfonamide]: the IC50 is 1.9 nM.

In the case of `CN1CC(n2nccc2-c2cc(-c3ccccc3C(F)(F)F)ccc2Oc2cc(F)c(S(=O)(=O)Nc3nncs3)cc2Cl)C1` [Example 13, 5-Chloro-2-fluoro-4-({3-[1-(1-methylazetidin-3-yl)-1H-pyrazol-5-yl]-2′-(trifluoromethyl)biphenyl-4-yl}oxy)-N-1,3,4-thiadiazol-2-ylbenzenesulfonamide], the IC50 was 2.2 nM.

For `CN1CC(n2nccc2-c2cc(-c3ccc(C(F)(F)F)cc3)ccc2Oc2cc(F)c(S(=O)(=O)Nc3nncs3)cc2Cl)C1` [Example 14, 5-Chloro-2-fluoro-4-({3-[1-(1-methylazetidin-3-yl)-1H-pyrazol-5-yl]-4′-(trifluoromethyl)biphenyl-4-yl}oxy)-N-1,3,4-thiadiazol-2-ylbenzenesulfonamide], the IC50 is 1.1 nM.

For the compound `Cn1nccc1-c1cc(-c2ccccc2)ccc1Oc1ccc(S(=O)(=O)Nc2ncc(F)s2)cc1C#N` [Example 15, 3-Cyano-N-(5-fluoro-1,3-thiazol-2-yl)-4-{[3-(1-methyl-1H-pyrazol-5-yl)biphenyl-4-yl]oxy}benzenesulfonamide], the IC50 was 6 nM.

Consider `Cn1nccc1-c1cc(-c2ccccc2)ccc1Oc1ccc(S(=O)(=O)Nc2ncns2)cc1C#N` [Example 16, 3-Cyano-4-{[3-(1-methyl-1H-pyrazol-5-yl)biphenyl-4-yl]oxy}-N-1,2,4-thiadiazol-5-ylbenzenesulfonamide], for which the IC50 is 1.5 nM.

For `N#Cc1cc(S(=O)(=O)Nc2ncns2)ccc1Oc1ccc(-c2ccccc2C(F)(F)F)cc1-c1ccnnc1` [Example 17, 3-Cyano-4-{[3-pyridazin-4-yl-2′-(trifluoromethyl)biphenyl-4-yl]oxy}-N-1,2,4-thiadiazol-5-ylbenzenesulfonamide], the IC50 was 2.7 nM.

Turning to `COc1cccc(-c2ccc(Oc3ccc(S(=O)(=O)Nc4nccs4)cc3C#N)c(-c3ccnn3C)c2)c1` [Example 18, 3-Cyano-4-{[3′-methoxy-3-(1-methyl-1H-pyrazol-5-yl)biphenyl-4-yl]oxy}-N-(1,3-thiazol-2-yl)benzenesulfonamide], the IC50 was 18 nM.

Turning to `COc1ccccc1-c1ccc(Oc2ccc(S(=O)(=O)Nc3nccs3)cc2C#N)c(-c2ccnn2C)c1` [Example 19, 3-Cyano-4-{[2′-methoxy-3-(1-methyl-1H-pyrazol-5-yl)biphenyl-4-yl]oxy}-N-(1,3-thiazol-2-yl)benzenesulfonamide], the IC50 is 11 nM.

Consider `Cn1nccc1-c1cc(-c2ccccc2)ccc1Oc1ccc(S(=O)(=O)Nc2ccc(F)cn2)cc1C#N` [Example 20, 3-Cyano-N-(5-fluoropyridin-2-yl)-4-{[3-(1-methyl-1H-pyrazol-5-yl)biphenyl-4-yl]oxy}benzenesulfonamide], for which the IC50 is 240 nM.

With `Cn1nccc1-c1cc(-c2cccc(CN)c2)ccc1Oc1ccc(S(=O)(=O)Nc2nccs2)cc1C#N` [Example 21, 4-{[3′-(Aminomethyl)-3-(1-methyl-1H-pyrazol-5-yl)biphenyl-4-yl]oxy}-3-cyano-N-(1,3-thiazol-2-yl)benzenesulfonamide, hydrochloride salt], the IC50 is 100 nM.

For the compound `Cn1nccc1-c1cc(-c2ccccc2)ccc1Oc1cc(F)c(S(=O)(=O)Nc2ccc(F)cn2)cc1Cl` [Example 22, 5-Chloro-2-fluoro-N-(5-fluoropyridin-2-yl)-4-{[3-(1-methyl-1H-pyrazol-5-yl)biphenyl-4-yl]oxy}benzenesulfonamide], the IC50 is 33 nM.

Consider `CNCc1ccccc1-c1ccc(Oc2ccc(S(=O)(=O)Nc3nccs3)cc2C#N)c(-c2ccnn2C)c1` [Example 23, 3-Cyano-4-({2′-[(methylamino)methyl]-3-(1-methyl-1H-pyrazol-5-yl)biphenyl-4-yl}oxy)-N-(1,3-thiazol-2-yl)benzenesulfonamide, trifluoroacetate salt], for which the IC50 was 5.1 nM.
